Several values for one entry are separate records, joined by “and”; a condition that tells them apart may be missing. Identical values can stand only once. Inconclusive results and toxic doses are left out.
Tested on: L1210 leukemia ip in BDF1 mice, survival T/C
Experiment: NCI In Vivo Anticancer Drug Screen. Data for tumor model L1210 Leukemia (intraperitoneal) in B6D2F1 (BDF1) mice
Conditions: endpoint: mean survival time, higher = longer survival
How it was run: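 Tumor cells were implanted, animals were treated, and survival was followed. The result divides the treated measurement by the vehicle-control measurement.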

## O=c1[nH]cc(N(CCCl)CCCl)c(=O)[nH]1
dose: 0.04 mg/kg/injection, schedule: Q01DX001 (ip), vehicle: carboxymethylcellulose (CMC)
  T/C: 106 % of control
dose: 0.05 mg/kg/injection, schedule: Q01DX Z (ip), vehicle: carboxymethylcellulose (CMC)
  T/C: 107 % of control
dose: 0.05 mg/kg/injection, schedule: Q#A X Z (ip), vehicle: carboxymethylcellulose (CMC)
  T/C: 101 % of control
dose: 0.07 mg/kg/injection, schedule: Q01DX001 (ip), vehicle: carboxymethylcellulose (CMC)
  T/C: 101 % of control
dose: 0.07 mg/kg/injection, schedule: Q03DX006 (ip), vehicle: carboxymethylcellulose (CMC)
  T/C: 123 % of control
dose: 0.09 mg/kg/injection, schedule: Q#A X Z (ip), vehicle: carboxymethylcellulose (CMC)
  T/C: 106 % of control
dose: 0.1 mg/kg/injection, schedule: Q01DX Z (ip), vehicle: carboxymethylcellulose (CMC)
  T/C: 102 % of control
dose: 0.1 mg/kg/injection, schedule: Q01DX Z (ip), vehicle: saline
  T/C: 157 % of control
dose: 0.13 mg/kg/injection, schedule: Q01DX001 (ip), vehicle: carboxymethylcellulose (CMC)
  T/C: 100 % of control
dose: 0.16 mg/kg/injection, schedule: Q07DX003 (ip), vehicle: carboxymethylcellulose (CMC)
  T/C: 108 % of control
dose: 0.19 mg/kg/injection, schedule: Q#A X Z (ip), vehicle: carboxymethylcellulose (CMC)
  T/C: 110 % of control
dose: 0.25 mg/kg/injection, schedule: Q01DX001 (ip), vehicle: carboxymethylcellulose (CMC)
  T/C: 105 % of control
dose: 0.3 mg/kg/injection, schedule: Q01DX Z (ip), vehicle: saline
  T/C: 159 % of control
dose: 0.3 mg/kg/injection, schedule: Q03DX006 (ip), vehicle: carboxymethylcellulose (CMC)
  T/C: 109 % of control
dose: 0.32 mg/kg/injection, schedule: Q07DX003 (ip), vehicle: carboxymethylcellulose (CMC)
  T/C: 102 % of control
dose: 0.37 mg/kg/injection, schedule: Q#A X Z (ip), vehicle: carboxymethylcellulose (CMC)
  T/C: 119 % of control
dose: 0.38 mg/kg/injection, schedule: Q01DX006 (iv), vehicle: carboxymethylcellulose (CMC)
  T/C: 91 % of control
dose: 0.38 mg/kg/injection, schedule: Q01DX Z (im), vehicle: carboxymethylcellulose (CMC)
  T/C: 98 % of control
dose: 0.38 mg/kg/injection, schedule: Q01DX Z (sc), vehicle: carboxymethylcellulose (CMC)
  T/C: 104 % of control
dose: 0.5 mg/kg/injection, schedule: Q01DX001 (ip), vehicle: carboxymethylcellulose (CMC)
  T/C: 170 % of control
dose: 0.6 mg/kg/injection, schedule: Q03DX006 (ip), vehicle: carboxymethylcellulose (CMC)
  T/C: 170 % of control
dose: 0.63 mg/kg/injection, schedule: Q07DX003 (ip), vehicle: carboxymethylcellulose (CMC)
  T/C: 121 % of control
dose: 0.7 mg/kg/injection, schedule: Q01DX Z (ip), vehicle: saline
  T/C: 101 % of control
dose: 0.75 mg/kg/injection, schedule: Q01DX006 (iv), vehicle: carboxymethylcellulose (CMC)
  T/C: 110 % of control
dose: 0.75 mg/kg/injection, schedule: Q01DX015 (ip), vehicle: carboxymethylcellulose (CMC)
  T/C: 178 % of control
dose: 0.75 mg/kg/injection, schedule: Q01DX Z (im), vehicle: carboxymethylcellulose (CMC)
  T/C: 101 % of control
dose: 0.75 mg/kg/injection, schedule: Q01DX Z (ip), vehicle: carboxymethylcellulose (CMC)
  T/C: 119 % of control
dose: 0.75 mg/kg/injection, schedule: Q01DX Z (sc), vehicle: carboxymethylcellulose (CMC)
  T/C: 107 % of control
dose: 0.8 mg/kg/injection, schedule: Q01DX Z (ip), vehicle: other
  T/C: 109 % of control
dose: 1.1 mg/kg/injection, schedule: Q01DX015 (ip), vehicle: carboxymethylcellulose (CMC)
  T/C: 182 % of control
dose: 1.1 mg/kg/injection, schedule: Q03DX006 (ip), vehicle: carboxymethylcellulose (CMC)
  T/C: 181 % of control
dose: 1.2 mg/kg/injection, schedule: Q01DX Z (ip), vehicle: alkali diluted with saline
  T/C: 118 % of control
dose: 1.2 mg/kg/injection, schedule: Q01DX Z (ip), vehicle: saline
  T/C: 159 % of control
dose: 1.25 mg/kg/injection, schedule: Q07DX003 (ip), vehicle: carboxymethylcellulose (CMC)
  T/C: 114 % of control and 201 % of control
dose: 1.3 mg/kg/injection, schedule: Q01DX Z (ip), vehicle: other
  T/C: 120 % of control
dose: 1.5 mg/kg/injection, schedule: Q01DX006 (iv), vehicle: carboxymethylcellulose (CMC)
  T/C: 104 % of control and 109 % of control
dose: 1.5 mg/kg/injection, schedule: Q01DX Z (im), vehicle: carboxymethylcellulose (CMC)
  T/C: 108 % of control
dose: 1.5 mg/kg/injection, schedule: Q01DX Z (ip), vehicle: carboxymethylcellulose (CMC)
  T/C: 115 % of control
dose: 1.5 mg/kg/injection, schedule: Q01DX Z (oral), vehicle: carboxymethylcellulose (CMC)
  T/C: 119 % of control
dose: 1.5 mg/kg/injection, schedule: Q01DX Z (sc), vehicle: carboxymethylcellulose (CMC)
  T/C: 115 % of control
dose: 1.5 mg/kg/injection, schedule: Q#A X Z (ip), vehicle: carboxymethylcellulose (CMC)
  T/C: 111 % of control
dose: 1.6 mg/kg/injection, schedule: Q01DX001 (ip), vehicle: gum acacia
  T/C: 110 % of control
dose: 1.7 mg/kg/injection, schedule: Q01DX015 (ip), vehicle: carboxymethylcellulose (CMC)
  T/C: 170 % of control
dose: 1.8 mg/kg/injection, schedule: Q01DX Z (ip), vehicle: alkali diluted with saline
  T/C: 112 % of control
dose: 1.8 mg/kg/injection, schedule: Q01DX Z (ip), vehicle: other
  T/C: 109 % of control
dose: 2.0 mg/kg/injection, schedule: Q01DX001 (ip), vehicle: carboxymethylcellulose (CMC)
  T/C: 109 % of control and 123 % of control
dose: 2.4 mg/kg/injection, schedule: Q01DX001 (ip), vehicle: gum acacia
  T/C: 186 % of control
dose: 2.5 mg/kg/injection, schedule: Q01DX Z (ip), vehicle: alkali diluted with saline
  T/C: 116 % of control
dose: 2.7 mg/kg/injection, schedule: Q01DX Z (ip), vehicle: other
  T/C: 124 % of control
dose: 3.0 mg/kg/injection, schedule: Q01DX006 (iv), vehicle: carboxymethylcellulose (CMC)
  T/C: 112 % of control
dose: 3.0 mg/kg/injection, schedule: Q01DX Z (ip), vehicle: carboxymethylcellulose (CMC)
  T/C: 105 % of control and 115 % of control
dose: 3.0 mg/kg/injection, schedule: Q01DX Z (ip), vehicle: saline
  T/C: 112 % of control
dose: 3.6 mg/kg/injection, schedule: Q01DX001 (ip), vehicle: carboxymethylcellulose (CMC)
  T/C: 163 % of control
dose: 3.6 mg/kg/injection, schedule: Q01DX001 (ip), vehicle: gum acacia
  T/C: 150 % of control
dose: 3.7 mg/kg/injection, schedule: Q01DX Z (ip), vehicle: saline
  T/C: 90 % of control
dose: 4.5 mg/kg/injection, schedule: Q03DX006 (ip), vehicle: carboxymethylcellulose (CMC)
  T/C: 111 % of control
dose: 5.0 mg/kg/injection, schedule: Q01DX001 (ip), vehicle: carboxymethylcellulose (CMC)
  T/C: 161 % of control
dose: 5.0 mg/kg/injection, schedule: Q07DX003 (ip), vehicle: carboxymethylcellulose (CMC)
  T/C: 188 % of control
dose: 5.4 mg/kg/injection, schedule: Q01DX001 (ip), vehicle: gum acacia
  T/C: 172 % of control and 330 % of control
dose: 6.0 mg/kg/injection, schedule: Q01DX Z (im), vehicle: carboxymethylcellulose (CMC)
  T/C: 95 % of control
dose: 6.0 mg/kg/injection, schedule: Q01DX Z (oral), vehicle: carboxymethylcellulose (CMC)
  T/C: 104 % of control
dose: 6.0 mg/kg/injection, schedule: Q01DX Z (sc), vehicle: carboxymethylcellulose (CMC)
  T/C: 105 % of control
dose: 6.0 mg/kg/injection, schedule: Q#A X Z (ip), vehicle: carboxymethylcellulose (CMC)
  T/C: 154 % of control
dose: 10.0 mg/kg/injection, schedule: Q01DX001 (ip), vehicle: carboxymethylcellulose (CMC)
  T/C: 105 % of control and 123 % of control
dose: 12.0 mg/kg/injection, schedule: Q01DX006 (iv), vehicle: carboxymethylcellulose (CMC)
  T/C: 115 % of control
dose: 20.0 mg/kg/injection, schedule: Q01DX001 (ip), vehicle: carboxymethylcellulose (CMC)
  T/C: 120 % of control
dose: 29.0 micrograms/kg/injection, schedule: Q01DX Z (ip), vehicle: saline
  T/C: 119 % of control
dose: 44.0 micrograms/kg/injection, schedule: Q01DX Z (ip), vehicle: saline
  T/C: 121 % of control
dose: 100.0 micrograms/kg/injection, schedule: Q01DX Z (ip), vehicle: saline
  T/C: 113 % of control

— PubChem BioAssay AID248 (DTP/NCI, 2004)
